Measurements: patent US11419806B2, “Prebiotic oral care methods using a saccharide” (Colgate-Palmolive Company, priority 2013, dated 2022)

How the values were obtained:
Assay in all cases: Phenotype microarray metabolic activity
Assay type in all cases: cell-based
Actinomyces naeslundii = settings: A naeslundii
Experimental: (§1) The extent of metabolic activity of the tested bacteria in the presence of the above-mentioned saccharides after 24 hours and 48 hours was investigated through a high throughput phenotype microarray system (PM) for microbial cells (Biolog Inc.). Each PM can contain up to 95 different biochemical compounds (e.g. saccharides) that may act as substrates for bacteria as well as one negative control, not containing the substrates. Microarray plates were used in which the different wells of each plate were pre-loaded (by the manufacturer, Biolog Inc.) with different saccharides to be tested. Each bacterial species was tested using a separate microarray plate. Thus, a single bacterial species was tested with a variety of saccharides on each particular plate. The microarrays are based on redox technology, using cell respiration as a universal reporter. Active cell respiration results in the reduction of a tetrazolium dye and in the formation of a strong color—for example, when using the tetrazolium dye “Biolog Redox Dye Mix D”, the color changes from transparent/colorless to purple when the dye is reduced. The observation of this color change indicates which of the substrates improve the metabolic activity and health of the cells.
(§2) Each bacterial species was collected from blood agar plates (incubated for 48 hours anaerobically at 37° C.) and transferred to an IF-0 Base inoculation fluid (Biolog Inc.), which is a nutritionally poor medium. The resulting cell suspension was adjusted to a transmittance of 42% (relative to the transmittance of the base inoculation fluid with no bacterial species present) at 492 nm using a BioRad SmartSpec 3000 Photometer (the adjustment being effected by adding either further inoculation fluid or further bacteria until the transmittance of 42% was achieved). A 1:5 dilution of this suspension was prepared by mixing 3 mL of the 42% transmittance cell suspension with 15 mL of an inoculation fluid (which inoculation fluid was formed by mixing 11.6 mL sterile water, 62.5 mL IF-0 base inoculation fluid and 0.9 mL of the tetrazolium dye “Biolog Redox Dye mix D”), resulting in a final cell density which was equal to 85% transmittance using a BioRad SmartSpec 3000 Photometer. For each of the saccharides tested, the microarray plate (obtained from the supplier (Biolog Inc.) with saccharides already present in the relevant wells in powder form) was directly inoculated with 100 μL/well of this 85% transmittance cell suspension.
(§3) All plates were incubated in an anaerobic atmosphere at 37° C. Color changes were measured spectrophotometrically at 492 nm (Thermo Scientific Multiskan Ascent) at 24 hrs and 48 hrs using the same plate at both time points. […] After 24 hrs and 48 hrs under continuous shaking in a Multiscan microplate reader, the optical density (OD) of the synthetic medium at 24 hours and 48 hours was measured (using the microplate reader) at a wavelength of 492 nm for each combination of bacterium/saccharide, and for each of their respective controls (i.e. which contained the particular bacterium but no saccharide).
(§4) The experiment was carried out three times for each combination of bacterium with saccharide, with each repeat being carried out on a different day (thus providing three biological replicas). The controls were also carried out three times, as above. The values shown are the average (mean) of the three single values obtained (as detailed above) for each combination of bacterium with saccharide, at 24 hrs and at 48 hrs.

Actinomyces viscosus = settings: A viscosus
Experimental: as §1, §2, §3, §4

[1] = test system: Aggregatibacter actinomycetemcomitans; settings: A actinomycetemcomitans
Experimental: as §1, §2, §3, §4

Capnocytophaga sputigena = settings: C sputigena
Experimental: as §1, §2, §3, §4

Fusobacterium nucleatum = settings: F nucleatum
Experimental: as §1, §2, §3, §4

Porphyromonas gingivalis = settings: P gingivalis
Experimental: as §1, §2, §3, §4

Prevotella intermedia = settings: P intermedia
Experimental: as §1, §2, §3, §4

S sanguinis = test system: S sanguinis
Experimental: as §1, §2, §3, §4

Streptococcus gordonii = settings: S gordonii
Experimental: as §1, §2, §3, §4

Streptococcus mitis = settings: S mitis
Experimental: as §1, §2, §3, §4

Streptococcus mutans = settings: S mutans
Experimental: as §1, §2, §3, §4

Streptococcus salivarius = settings: S salivarius
Experimental: as §1, §2, §3, §4

Streptococcus sobrinus = settings: S sobrinus
Experimental: as §1, §2, §3, §4

Tannerella forsythia = settings: T forsythia
Experimental: as §1, §2, §3, §4

Veillonella parvula = settings: V parvula
Experimental: as §1, §2, §3, §4

Structure (SMILES): OC[C@H]1O[C@@](O)(CO)[C@@H](O[C@H]2O[C@H](CO)[C@@H](O)[C@H](O)[C@H]2O)[C@@H]1O [D-Turanose, α-D-glucopyranosyl-(1→3)-α-D-fructofuranose]
- metabolic activity: OD 492 nm divided by OD of control (control = 1) (Actinomyces naeslundii; 24 hrs): 2.1636
- metabolic activity: OD 492 nm divided by OD of control (control = 1) (Actinomyces naeslundii; 48 hrs): 2.7551
- metabolic activity: OD 492 nm divided by OD of control (control = 1) (Actinomyces viscosus; 24 hrs): 2.2260
- metabolic activity: OD 492 nm divided by OD of control (control = 1) (Actinomyces viscosus; 48 hrs): 3.0809
- metabolic activity: OD 492 nm divided by OD of control (control = 1) ([1]; 24 hrs): 1.0170
- metabolic activity: OD 492 nm divided by OD of control (control = 1) ([1]; 48 hrs): 1.2549
- metabolic activity: OD 492 nm divided by OD of control (control = 1) (Capnocytophaga sputigena; 24 hrs): 0.9893
- metabolic activity: OD 492 nm divided by OD of control (control = 1) (Capnocytophaga sputigena; 48 hrs): 1.0899
- metabolic activity: OD 492 nm divided by OD of control (control = 1) (Fusobacterium nucleatum; 24 hrs): 1.3517
- metabolic activity: OD 492 nm divided by OD of control (control = 1) (Fusobacterium nucleatum; 48 hrs): 1.6086
- metabolic activity: OD 492 nm divided by OD of control (control = 1) (Porphyromonas gingivalis; 24 hrs): 0.8165
- metabolic activity: OD 492 nm divided by OD of control (control = 1) (Porphyromonas gingivalis; 48 hrs): 0.7822
- metabolic activity: OD 492 nm divided by OD of control (control = 1) (Prevotella intermedia; 24 hrs): 1.1121
- metabolic activity: OD 492 nm divided by OD of control (control = 1) (Prevotella intermedia; 48 hrs): 1.2058
- metabolic activity: OD 492 nm divided by OD of control (control = 1) (S sanguinis; 24 hrs): 1.3458
- metabolic activity: OD 492 nm divided by OD of control (control = 1) (S sanguinis; 48 hrs): 1.5207
- metabolic activity: OD 492 nm divided by OD of control (control = 1) (Streptococcus gordonii; 24 hrs): 1.7899
- metabolic activity: OD 492 nm divided by OD of control (control = 1) (Streptococcus gordonii; 48 hrs): 2.1615
- metabolic activity: OD 492 nm divided by OD of control (control = 1) (Streptococcus mitis; 24 hrs): 1.2969
- metabolic activity: OD 492 nm divided by OD of control (control = 1) (Streptococcus mitis; 48 hrs): 1.3856
- metabolic activity: OD 492 nm divided by OD of control (control = 1) (Streptococcus mutans; 24 hrs): 1.4769
- metabolic activity: OD 492 nm divided by OD of control (control = 1) (Streptococcus mutans; 48 hrs): 2.1955
- metabolic activity: OD 492 nm divided by OD of control (control = 1) (Streptococcus salivarius; 24 hrs): 1.1489
- metabolic activity: OD 492 nm divided by OD of control (control = 1) (Streptococcus salivarius; 48 hrs): 1.2834
- metabolic activity: OD 492 nm divided by OD of control (control = 1) (Streptococcus sobrinus; 24 hrs): 1.6552
- metabolic activity: OD 492 nm divided by OD of control (control = 1) (Streptococcus sobrinus; 48 hrs): 1.8299
- metabolic activity: OD 492 nm divided by OD of control (control = 1) (Tannerella forsythia; 24 hrs): 1.0435
- metabolic activity: OD 492 nm divided by OD of control (control = 1) (Tannerella forsythia; 48 hrs): 1.1254
- metabolic activity: OD 492 nm divided by OD of control (control = 1) (Veillonella parvula; 24 hrs): 0.8743
- metabolic activity: OD 492 nm divided by OD of control (control = 1) (Veillonella parvula; 48 hrs): 0.7770
